Starred links: 1 amine or outer side, 2 acyl side, 3 side chain; linkers in the order of their positions; H or OH if unused. Positions of bridges follow the written chain, without caps; N, C: chain ends. Non-standard residues stand in square brackets, D forms with d. Residues, ends and D or L forms follow the SMILES beside them. Groups on a side chain read outwards from the residue. *: point of attachment. X4 = O=C(O)CN1CCN(CC(=O)O)CCN([C@H](CCC(=O)*)C(=O)O)CCN(CC(=O)O)CC1; Ala(piperidin-4-yl) = O=C([C@H](CC1CCN([*:3])CC1)N[*:1])[*:2]; X10 = C[C@@H](c1c[nH]c2ccc(F)cc12)[C@H](N[*:1])C(=O)[*:2]; DOTA = O=C(O)CN1CCN(CC(=O)O)CCN(CC(=O)*)CCN(CC(=O)O)CC1; Trp(5-F) = N[C@@H](Cc1c[nH]c2ccc(F)cc12)C(=O)O; Trp(7-aza) = N[C@@H](Cc1c[nH]c2ncccc12)C(=O)O; X1 = C[C@@H](c1ccccc1)[C@H](N[*:1])C(=O)[*:2]; Pro(cis-4-F) = O=C(O)[C@@H]1C[C@H](F)CN1; γGlu = O=C(O)[C@H](CCC(=O)[*:2])N[*:1]; 1Nal = N[C@@H](Cc1cccc2ccccc12)C(=O)O; Ala(4-THP) = N[C@@H](CC1CCOCC1)C(=O)O; Val(3-OH) = CC(C)(O)[C@H](N)C(=O)O; 4Pal = N[C@@H](Cc1ccncc1)C(=O)O; Aad = N[C@@H](CCCC(=O)O)C(=O)O; PEG4 = NCCOCCOCCOCCOCCC(=O)O; Tle = CC(C)(C)[C@H](N)C(=O)O; hLeu = CC(C)CC[C@H](N)C(=O)O; NMeS = CN[C@@H](CO)C(=O)O; Nle = CCCC[C@H](N)C(=O)O; Sar = CNCC(=O)O
The compounds below were run against T1, human 4lg B7-H3 (Homo sapiens, UniProt Q5ZPR3) (assay: Affinity determination by surface plasmon resonance (SPR) to 4Ig B7-H3). Details: SPR KD—25° C., 4Ig B7-H3; 25° C. flow cell temperature.
T1 sequence (Q5ZPR3 29-534): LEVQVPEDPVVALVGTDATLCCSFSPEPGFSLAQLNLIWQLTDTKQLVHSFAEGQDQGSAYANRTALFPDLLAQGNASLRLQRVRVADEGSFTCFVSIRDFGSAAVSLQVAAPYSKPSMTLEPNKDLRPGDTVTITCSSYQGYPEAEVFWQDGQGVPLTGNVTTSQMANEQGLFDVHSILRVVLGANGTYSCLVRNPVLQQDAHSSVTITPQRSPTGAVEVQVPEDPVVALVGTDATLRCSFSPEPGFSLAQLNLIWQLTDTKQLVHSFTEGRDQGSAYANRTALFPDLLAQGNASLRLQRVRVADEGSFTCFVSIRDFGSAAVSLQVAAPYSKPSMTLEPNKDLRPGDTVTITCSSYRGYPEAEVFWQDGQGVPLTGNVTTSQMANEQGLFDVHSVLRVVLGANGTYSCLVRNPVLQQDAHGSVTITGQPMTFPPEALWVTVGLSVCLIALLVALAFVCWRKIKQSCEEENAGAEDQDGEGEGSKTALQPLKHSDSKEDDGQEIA

Compound	Kd [nM]
CCCC[C@@H]1NC(=O)[C@H](C(C)C)NC(=O)[C@H](CC(=O)O)NC(=O)[C@H](Cc2ccncc2)NC(=O)[C@H](CCCCN)NC(=O)CNC(=O)[C@H](C(C)(C)C)NC(=O)[C@@H](NC(=O)[C@H](Cc2ccc(O)cc2)NC(=O)[C@H](CCC(C)C)NC(C)=O)CSSC[C@@H](C(=O)N[C@@H](Cc2cccc3ccccc23)C(=O)N[C@@H](Cc2ccccc2)C(=O)N(C)[C@@H](CO)C(=O)N[C@H](CCCCNC(=O)CN2CCN(CC(=O)O)CCN(CC(=O)O)CCN(CC(=O)O)CC2)C(N)=O)NC1=O [compound 225, Ac-hLeu-Y-C-Tbg-G-K-4PyA-D-V-Nle-C-1Nal-F-NMeSer-dLys(DOTA)-CONH2] (Ac-[hLeu]YC[Tle]GK[4Pal]DV[Nle]C[1Nal]F[NMeS][dK](DOTA)-NH2; disulfide 3-11)	10 to 100
CC(=O)N[C@@H](CCC(C)C)C(=O)N[C@@H](Cc1ccc(O)cc1)C(=O)N[C@H]1CSSC[C@@H](C(=O)N[C@@H](Cc2c[nH]c3ccccc23)C(=O)N[C@@H](Cc2ccccc2)C(=O)N[C@H](C(=O)N[C@H](CCCCNC(=O)CN2CCN(CC(=O)O)CCN(CC(=O)O)CCN(CC(=O)O)CC2)C(N)=O)[C@@H](C)O)NC(=O)[C@H](Cc2ccc(O)cc2)NC(=O)[C@H](C(C)C)NC(=O)[C@H](CC(=O)O)NC(=O)[C@H](Cc2ccc(O)cc2)NC(=O)[C@H](CCCCN)NC(=O)CN(C)C(=O)[C@H](C(C)(C)C)NC1=O [compound 75, Ac-hLeu-Y-C-Tbg-Sar-K-Y-D-V-Y-C-W-F-Thr-dLys(DOTA)-CONH2] (Ac-[hLeu]YC[Tle][Sar]KYDVYCWFT[dK](DOTA)-NH2; disulfide 3-11)	1 to 10
CCCC[C@H](NC(C)=O)C(=O)N[C@@H](Cc1ccc(O)cc1)C(=O)N[C@H]1CSSC[C@@H](C(=O)N[C@@H](Cc2c[nH]c3ccccc23)C(=O)N[C@@H](Cc2ccccc2)C(=O)N[C@H](C(=O)N[C@H](CCCCNC(=O)CN2CCN(CC(=O)O)CCN(CC(=O)O)CCN(CC(=O)O)CC2)C(N)=O)[C@@H](C)O)NC(=O)[C@H](Cc2ccc(O)cc2)NC(=O)[C@H](C(C)(C)C)NC(=O)[C@H](CC(=O)O)NC(=O)[C@H](Cc2ccc(O)cc2)NC(=O)[C@H](CCCCN)NC(=O)CNC(=O)[C@H](C(C)C)NC1=O [compound 62, Ac-Nle-Y-C-V-G-K-Y-D-Tbg-Y-C-W-F-Thr-dLys(DOTA)-CONH2] (Ac-[Nle]YCVGKYD[Tle]YCWFT[dK](DOTA)-NH2; disulfide 3-11)	100 to 300
CCCC[C@H](NC(C)=O)C(=O)N[C@@H](Cc1ccc(O)cc1)C(=O)N[C@H]1CSSC[C@@H](C(=O)N[C@@H](Cc2c[nH]c3ccccc23)C(=O)N[C@@H](Cc2ccccc2)C(=O)N[C@H](C(=O)N[C@H](CCCCNC(=O)CN2CCN(CC(=O)O)CCN(CC(=O)O)CCN(CC(=O)O)CC2)C(=O)O)[C@@H](C)O)NC(=O)[C@H](Cc2ccc(O)cc2)NC(=O)[C@H](C(C)C)NC(=O)[C@H](CC(=O)O)NC(=O)[C@H](CCCC(=O)O)NC(=O)[C@H](CCCCN)NC(=O)CNC(=O)[C@H](C(C)C)NC1=O [compound 116, Ac-Nle-Y-C-V-G-K-HomoGlu-D-V-Y-C-W-F-Thr-dLys(DOTA)-COOH] (Ac-[Nle]YCVGK[Aad]DVYCWFT[dK](DOTA)-OH; disulfide 3-11)	10 to 100
CCCC[C@H](NC(C)=O)C(=O)N[C@@H](Cc1ccc(O)cc1)C(=O)N[C@H]1CSSC[C@@H](C(=O)N[C@@H](Cc2c[nH]c3ccccc23)C(=O)N[C@@H](Cc2ccccc2)C(=O)N[C@@H](CC2CCNCC2)C(=O)N[C@H](CCCCNC(=O)CN2CCN(CC(=O)O)CCN(CC(=O)O)CCN(CC(=O)O)CC2)C(N)=O)NC(=O)[C@H](Cc2ccc(O)cc2)NC(=O)[C@H](C(C)C)NC(=O)[C@H](CC(=O)O)NC(=O)[C@H](Cc2ccc(O)cc2)NC(=O)[C@H](CCCCN)NC(=O)CNC(=O)[C@H](C(C)C)NC1=O [compound 89, Ac-Nle-Y-C-V-G-K-Y-D-V-Y-C-W-F-4PipAla-dLys(DOTA)-CONH2] (Ac-[Nle]YCVGKYDVYCWF[Ala(piperidin-4-yl)][dK](DOTA)-NH2; disulfide 3-11)	10 to 100
COc1ccc(C[C@@H]2NC(=O)[C@H](C(C)C)NC(=O)[C@H](CC(=O)O)NC(=O)[C@H](Cc3ccc(O)cc3)NC(=O)[C@H](CCCCN)NC(=O)CNC(=O)[C@H](C(C)C)NC(=O)[C@@H](NC(=O)[C@H](Cc3ccc(O)cc3)NC(=O)[C@H](CCC(C)C)NC(C)=O)CSSC[C@@H](C(=O)N[C@@H](Cc3c[nH]c4ccc(F)cc34)C(=O)N[C@@H](Cc3ccccc3)C(=O)N[C@H](C(=O)N[C@H](CCCCNC(=O)CN3CCN(CC(=O)O)CCN(CC(=O)O)CCN(CC(=O)O)CC3)C(N)=O)[C@@H](C)O)NC2=O)cc1 [compound 171, Ac-hLeu-Y-C-V-G-K-Y-D-V-OMeTyr-C-5FW-F-Thr-dLys(DOTA)-CONH2] (Ac-[hLeu]YCVGKYDVY(Me)C[Trp(5-F)]FT[dK](DOTA)-NH2; disulfide 3-11)	< 1

Further lines, results first:

Kd [nM]	Compound
10 to 100	CC(C)CC[C@H](NC(=O)CC[C@H](NC(=O)CN1CCN(CC(=O)O)CCN(CC(=O)O)CCN(CC(=O)O)CC1)C(=O)O)C(=O)N[C@@H](Cc1c[nH]c2ncccc12)C(=O)N[C@H]1CSSC[C@@H](C(=O)N[C@@H](Cc2cccc3ccccc23)C(=O)N[C@@H](Cc2ccccc2)C(=O)N2CCC[C@H]2C(N)=O)NC(=O)[C@H](Cc2ccc(O)cc2)NC(=O)[C@H](C(C)C)NC(=O)[C@H](CC(=O)O)NC(=O)[C@H](CC2CCOCC2)NC(=O)[C@H](CC2CCNCC2)NC(=O)CNC(=O)[C@H](C(C)(C)C)NC1=O [compound 284, DOTA-gE-hLeu-7AzaW-C-Tbg-G-PipAla-ThpA-D-V-Y-C-1Nal-F-Pro-CONH2] ({DOTA-γGlu}-[hLeu][Trp(7-aza)]C[Tle]G[Ala(piperidin-4-yl)][Ala(4-THP)]DVYC[1Nal]FP-NH2; disulfide 3-11)
10 to 100	CC(=O)N[C@@H](CCC(C)C)C(=O)N[C@@H](Cc1ccc(O)cc1)C(=O)N[C@H]1CSSC[C@@H](C(=O)N[C@@H](Cc2cccc3ccccc23)C(=O)N[C@@H](Cc2ccccc2)C(=O)N2C[C@@H](F)C[C@H]2C(=O)O)NC(=O)[C@H](Cc2ccc(O)cc2)NC(=O)[C@H](C(C)C)NC(=O)[C@H](CC(=O)O)NC(=O)[C@H](Cc2ccncc2)NC(=O)[C@H](CCCCNC(=O)CN2CCN(CC(=O)O)CCN(CC(=O)O)CCN(CC(=O)O)CC2)NC(=O)CNC(=O)[C@H](C(C)(C)C)NC1=O [compound 263, Ac-hLeu-Y-C-Tbg-G-Lys(DOTA)-4PyA-D-V-Y-C-1Nal-F-cis4FPro-CONH2] (Ac-[hLeu]YC[Tle]GK(DOTA)[4Pal]DVYC[1Nal]F[Pro(cis-4-F)]-OH; disulfide 3-11)

Same assay, conditions: SPR KD—37° C., 4Ig B7-H3; 37° C. flow cell temperature

Kd [nM]	Compound
1 to 10	CC(=O)N[C@@H](CCC(C)C)C(=O)N[C@@H](Cc1ccc(O)cc1)C(=O)N[C@H]1CSSC[C@@H](C(=O)N[C@H](C(=O)N[C@@H](Cc2ccccc2)C(=O)N[C@H](C(=O)N[C@H](CCCCNC(=O)CN2CCN(CC(=O)O)CCN(CC(=O)O)CCN(CC(=O)O)CC2)C(=O)O)C(C)(C)O)[C@@H](C)c2c[nH]c3ccc(F)cc23)NC(=O)[C@H](Cc2ccc(O)cc2)NC(=O)[C@H](C(C)C)NC(=O)[C@H](CC(=O)O)NC(=O)[C@H](CC2CCOCC2)NC(=O)[C@H](CC2CCNCC2)NC(=O)CNC(=O)[C@H](C(C)(C)C)NC1=O [compound 450, Ac-hLeu-Y-C-Tbg-G-PipAla-ThpA-D-V-Y-C-(2S,3S-betaMe-5FW)-F-hydroxyVal-dLys(DOTA)-COOH] (Ac-[hLeu]YC[Tle]G[Ala(piperidin-4-yl)][Ala(4-THP)]DVYC[X10]F[Val(3-OH)][dK](DOTA)-OH; disulfide 3-11)
< 1	CC(=O)N[C@@H](CCC(C)C)C(=O)N[C@@H](Cc1ccc(O)cc1)C(=O)N[C@H]1CSSC[C@@H](C(=O)N[C@@H](Cc2c[nH]c3ccc(F)cc23)C(=O)N[C@H](C(=O)N[C@H](C(=O)NCC(=O)O)C(C)(C)O)[C@@H](C)c2ccccc2)NC(=O)[C@H](Cc2ccc(O)cc2)NC(=O)[C@H](C(C)C)NC(=O)[C@H](CC(=O)O)NC(=O)[C@H](CC2CCN(C(=O)CCOCCOCCOCCOCCNC(=O)CN3CCN(CC(=O)O)CCN(CC(=O)O)CCN(CC(=O)O)CC3)CC2)NC(=O)[C@H](CC2CCNCC2)NC(=O)CNC(=O)[C@H](C(C)(C)C)NC1=O [compound 510, Ac-hLeu-Y-C-Tbg-G-PipAla-Pip(PEG4-DOTA)Ala-D-V-Y-C-5FW-[(2S, 3S)beta-Me-Phe]-hydroxyVal-Gly-COOH] (Ac-[hLeu]YC[Tle]G[Ala(piperidin-4-yl)][Ala(piperidin-4-yl)]([PEG4-DOTA])DVYC[Trp(5-F)][X1][Val(3-OH)]G-OH; disulfide 3-11)
< 1	CC(=O)N[C@@H](CCC(C)C)C(=O)N[C@@H](Cc1ccc(O)cc1)C(=O)N[C@H]1CSSC[C@@H](C(=O)N[C@@H](Cc2c[nH]c3ccc(F)cc23)C(=O)N[C@@H](Cc2ccccc2)C(=O)N[C@H](C(=O)N[C@H](CCC(=O)O)C(N)=O)C(C)(C)O)NC(=O)[C@H](Cc2ccc(O)cc2)NC(=O)[C@H](C(C)C)NC(=O)[C@H](CC(=O)O)NC(=O)[C@H](CC2CCOCC2)NC(=O)[C@H](CC2CCN(C(=O)CC[C@H](C(=O)O)N3CCN(CC(=O)O)CCN(CC(=O)O)CCN(CC(=O)O)CC3)CC2)NC(=O)CNC(=O)[C@H](C(C)(C)C)NC1=O [compound 476, Ac-hLeu-Y-C-Tbg-G-Pip(R-DOTAGA)Ala-ThpA-D-V-Y-C-5FW-F-hydroxyVal-dGlu-CONH2] (Ac-[hLeu]YC[Tle]G[Ala(piperidin-4-yl)](X4)[Ala(4-THP)]DVYC[Trp(5-F)]F[Val(3-OH)][dE]-NH2; disulfide 3-11)
